The nature of data set [1]: Antiproliferative activity against estrogen receptor negative human MDA-MB-436 cells.
The next data set relates to MCF7. Kind of data set: Antiproliferative activity against estrogen receptor expressing human MCF7 cells. The class given is functional.
In another data set the test system is K562. As to the kind of experiment: Antiproliferative activity against human K562 cells. Format: functional.
In another data set the test system is HeLa. As to the kind of experiment: Cytotoxicity against human HeLa cells. Format: functional.
Data set [2] can be described thus: Antiproliferative activity against HUVEC cells. Format: cell-based. The following applies: human.

What is called GI50 is the concentration that inhibits growth by half. Low values mean more potent growth inhibition, high ones less potent growth inhibition. The CC50 is the concentration that lowers cell viability or growth by half. The low end stands for harm at low concentration, the high end for better tolerance by the cells. For `O=c1c(-c2cc(O)cc(O)c2)coc2cc(O)cc(O)c12`, the 50% growth inhibitory concentration (GI50) was greater than 174 µM in data set [1], 65 µM with MCF7, 75 µM with K562 and 133 µM in data set [2]. Half-maximal cytotoxicity in the data set on HeLa (CC50) was put at 134 µM.
Consider `COc1cc(-c2coc3cc(O)ccc3c2=O)ccc1O`, for which the values for the GI50 (in data set [1]; in the data set on MCF7) were 75 µM and 42 µM, respectively.
Turning to `COc1c(O)ccc(-c2coc3cc(O)cc(O)c3c2=O)c1O`, the GI50 in data set [1] worked out at 32 µM; in the data set with MCF7 it was 15 µM; in the data set with K562, 48 µM; in data set [2], 64 µM. Also, in the data set on HeLa, the midpoint of cytotoxicity, the CC50, lay at 77 µM.
For `O=c1c([C@]2(O)CC[C@@H](O)[C@H](O)C2)coc2cc(O)cc(O)c12` the same measures were 138 µM, 84 µM, greater than 162 µM, greater than 162 µM and greater than 162 µM.
Take `O=c1c2c(O)cc(O)cc2occ1[C@]1(O)CC[C@@H](O)CC1`: the GI50 in data set [1] was 147 µM; with MCF7, 75 µM.
In the case of `O=c1c(-c2cc(O)cc(O)c2)coc2cc(O)ccc12`, the GI50 was 169 µM in data set [1], 73 µM with MCF7, greater than 185 µM with K562 and greater than 185 µM in data set [2]. In the data set with HeLa, this compound came in with a cytotoxic concentration (CC50) of 160 µM.
In the case of `O=c1c(C2=CCCC(O)C2O)coc2cc(O)cc(O)c12` (stereo not given), the GI50 was 17 µM in data set [1], 6 µM in the data set with MCF7, greater than 172 µM with K562 and 17 µM in data set [2]. For the same compound, it took 81 µM to reach half-maximal cytotoxicity in the data set on HeLa (CC50).
`O=c1c(-c2ccc(O)cc2)coc2cc(O)ccc12` [DAIDZEIN]: the values for the GI50 (in data set [1]; in the data set with MCF7) were greater than 196 µM and 122 µM, respectively.
For `O=c1c(-c2ccc(O)cc2)coc2cc(O)cc(O)c12` [GENISTEIN] the same measures were 17 µM and 10 µM.
For `COc1c(O)ccc(-c2coc3cc(O)ccc3c2=O)c1O` the same measures were 68 µM and 37 µM.

For the origin of these results see ChEMBL document CHEMBL1154347, “Isoflavones with unusually modified B-rings and their evaluation as antiproliferative agents” (Bioorg Med Chem Lett, 2009).
